Data from patent publication US12319655B2, “RAF kinase inhibitors and methods of use thereof” (Deciphera Pharmaceuticals, LLC, priority 2021, dated 2025).

Key:
[1] = target: B-Raf kinase (SEQ. ID NO: 2) (Homo sapiens (Human), UniProt P15056); assay: Biochemical Assay for B-Raf (1); conditions: Table J, assay version (1); read-out: BRAF (1) IC50
How it was run: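 IC50 derived by four-parameter sigmoidal fit of percent inhibition, normalised to uninhibited and reference-inhibitor controls, using reaction rates over 4–5 h. Coupled spectrophotometric readout (NADH loss at 340 nm, 6 h, 30° C.); 1 mM ATP, 30.1 nM MEK, 0.13 nM B-Raf, pH 7.5 Tris buffer, 1% DMSO.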

WM3928 cells = assay: WM3928 Cell Proliferation Assay (1); format: cell-based
How it was run: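 IC50 was derived from resazurin fluorescence (ex 540, em 600 nm) after a 6–7 h dye incubation. Before that, cells had 67–72 h of compound exposure at 37 °C, 5% CO2.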

[2] = target: B-Raf (V600E) (SEQ. ID NO: 4) kinase (Homo sapiens (Human), UniProt P15056, V600E); assay: Biochemical Assay for B-Raf (V600E) (1); conditions: Table J, BRAF V600E, assay version (1); read-out: BRAF VE (1) IC50
How it was run: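 Serially diluted compounds tested against 0.03 nM enzyme with 30.1 nM MEK substrate and 1 mM ATP (Tris pH 7.5, 15 mM MgCl2), ATP use coupled to NADH loss via PK/LDH. A340 monitored continuously 6 h, 30 °C; IC50 fitted (four-parameter) from the 3–4 h rate versus no-compound and known-inhibitor controls.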

H2405 cells = assay: H2405 Cell Proliferation Assay (1); format: cell-based; conditions: Homo sapiens, NCI-H2405
How it was run: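 Viability was read by resazurin reduction (ex 540 nm, em 600 nm; 5-6 h with 40 μL of 440 μM stock) after 67-72 h compound exposure at 37 °C.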

Sequence of B-Raf (V600E) (SEQ. ID NO: 4) kinase (P15056 416-766 V600E): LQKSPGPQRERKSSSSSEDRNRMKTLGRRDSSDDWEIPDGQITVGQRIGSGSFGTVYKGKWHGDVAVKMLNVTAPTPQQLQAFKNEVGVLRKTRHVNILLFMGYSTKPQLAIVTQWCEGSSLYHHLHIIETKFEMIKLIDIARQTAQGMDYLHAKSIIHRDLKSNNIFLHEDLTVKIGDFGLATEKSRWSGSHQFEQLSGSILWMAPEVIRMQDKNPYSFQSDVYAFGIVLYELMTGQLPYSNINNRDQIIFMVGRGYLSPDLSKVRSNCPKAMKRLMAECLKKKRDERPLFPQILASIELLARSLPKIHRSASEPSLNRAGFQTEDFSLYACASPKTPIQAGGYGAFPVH
Sequence of B-Raf kinase (SEQ. ID NO: 2) (P15056 416-766): as the sequence (P15056 416-766 V600E) above, with E185V counted along it

SMILES	IC50 [1]	IC50 [2]	IC50 (H2405 cells)	IC50 (WM3928 cells)
Cc1ccc(NC(=O)c2ccnc(C(C)(C)F)c2)cc1-c1ccnc(-c2ccnc(NC(=O)C3CC3)c2)n1 [Example 186]	≤ 100 nM	≤ 100 nM	≤ 100 nM	≤ 100 nM
Cc1ncc(NC(=O)c2ccnc(C(C)(C)F)c2)cc1-c1cccc(-c2cc(NC(=O)C3CC3)ncn2)c1 [Example 249]	≤ 100 nM	≤ 100 nM	100 to 500 nM	≤ 100 nM
Cc1ncc(NC(=O)c2ccnc(C(C)(C)C#N)c2)cc1-c1cc(-c2cc(NC(=O)C3CC3)ncn2)cc(C2CC2)c1 [Example 218]	100 to 500 nM	≤ 100 nM	100 to 500 nM	≤ 100 nM
Cc1ncc(NC(=O)c2cnn(C(C)(C)C)c2)cc1-c1cccc(-c2cc(NC(=O)C3CC3)ncn2)c1 [Example 279]	≤ 100 nM	≤ 100 nM	100 to 500 nM	≤ 100 nM
Cc1ncc(NC(=O)c2cnnc(C3CC3)c2)cc1-c1ccnc(-c2ccnc(NC(=O)C3CC3)c2)n1 [Example 278]	≤ 100 nM	≤ 100 nM	1000 to 10000 nM	1000 to 10000 nM
Cc1ccc(NC(=O)c2ccnc(C3(C#N)CC3)c2)cc1-c1nccc(-c2ccnc(NC(=O)C3CC3)c2)n1 [Example 187]	≤ 100 nM	≤ 100 nM	100 to 500 nM	≤ 100 nM
Cc1ccc(NC(=O)c2ccnc(C(F)F)c2)cc1-c1ccnc(-c2ccnc(NC(=O)C3CC3)c2)n1 [Example 189]	≤ 100 nM	≤ 100 nM	100 to 500 nM	≤ 100 nM
Cc1ccc(NC(=O)c2ccnc(C3CC3)c2)cc1-c1ccnc(-c2ccnc(NC(=O)C3CC3)c2)n1 [Example 229]	≤ 100 nM	≤ 100 nM	≤ 100 nM	≤ 100 nM
Cc1cc(C(=O)Nc2cnc(C)c(-c3ccnc(-c4ccnc(NC(=O)C5CC5)c4)n3)c2)ccn1 [Example 273]	100 to 500 nM	≤ 100 nM	1000 to 10000 nM	1000 to 10000 nM
Cc1ncc(NC(=O)c2ccnc(C(C)(C)C#N)c2)cc1-c1ccnc(-c2ccnc(NC(=O)C3CC3)c2)c1 [Example 251]	≤ 100 nM	≤ 100 nM	100 to 500 nM	≤ 100 nM
Cc1ncc(NC(=O)c2ccnc(C3CC3)c2)cc1-c1ccnc(-c2ccnc(NC(=O)C3CC3)c2)c1 [Example 253]	≤ 100 nM	≤ 100 nM	100 to 500 nM	≤ 100 nM
Cc1ccc(NC(=O)c2cc(CN(C)C)cc(C(F)(F)F)c2)cc1-c1cccc(-c2cc(NC(=O)C3CC3)ncn2)c1 [Example 202]	≤ 100 nM	≤ 100 nM	100 to 500 nM	≤ 100 nM
Cc1ncc(NC(=O)c2ccnc(C3CC3)c2)cc1-c1ccnc(-c2ccnc(NC(=O)C3CC3)c2)n1 [Example 277]	≤ 100 nM	≤ 100 nM	100 to 500 nM	100 to 500 nM
COC(C)(C)c1cc(C(=O)Nc2cnc(C)c(-c3cccc(-c4cc(NC(=O)C5CC5)ncn4)c3)c2)ccn1 [Example 274]	≤ 100 nM	≤ 100 nM	≤ 100 nM	≤ 100 nM
Cc1ncc(NC(=O)c2ccnc(C3CC3)c2)cc1-c1cccc(-c2ccnc(NC(=O)C3CC3)c2)n1 [Example 270]	≤ 100 nM	≤ 100 nM	100 to 500 nM	100 to 500 nM
Cc1ncc(NC(=O)c2ccnc(C3CC3)c2)cc1-c1cnc(C)c(-c2ccnc(NC(=O)C3CC3)c2)c1 [Example 256]	≤ 100 nM	≤ 100 nM	100 to 500 nM	500 to 1000 nM
Cc1ccc(NC(=O)c2cnnc(C3CC3)c2)cc1-c1ccnc(-c2ccnc(NC(=O)C3CC3)c2)n1 [Example 250]	≤ 100 nM	≤ 100 nM	100 to 500 nM	100 to 500 nM
Cc1ncc(NC(=O)c2ccnc(C(C)(C)C#N)c2)cc1-c1ccnc(-c2ccnc(NC(=O)C3CC3)c2)n1 [Example 193]	≤ 100 nM	≤ 100 nM	≤ 100 nM	≤ 100 nM
Cc1ccc(NC(=O)c2ccnc(C3CC3)c2)cc1-c1cccc(-c2cc(NC(=O)C3CC3)ncn2)c1 [Example 255]	≤ 100 nM	≤ 100 nM	100 to 500 nM	≤ 100 nM
Cc1ncc(NC(=O)c2cnnc(C3CC3)c2)cc1-c1ccnc(-c2ccnc(NC(=O)C3CC3)c2)c1 [Example 254]	≤ 100 nM	≤ 100 nM	1000 to 10000 nM	1000 to 10000 nM

Second part, led by results:

IC50 [1]	IC50 [2]	IC50 (H2405 cells)	SMILES	IC50 (WM3928 cells)
100 to 500 nM	≤ 100 nM	100 to 500 nM	CNC(=O)c1cc(-c2cc(-c3cc(NC(=O)c4ccnc(C(C)(C)OC)c4)ccc3C)ccn2)ccn1 [Example 264]	≤ 100 nM
100 to 500 nM	≤ 100 nM	100 to 500 nM	CNC(=O)c1cc(-c2cccc(-c3cc(NC(=O)c4ccnc(C(C)(C)C#N)c4)cnc3C)c2)ncn1 [Example 204]	100 to 500 nM
≤ 100 nM	≤ 100 nM	1000 to 10000 nM	COCCNc1cc(-c2nccc(-c3cc(NC(=O)c4ccnc(C(C)(C)C#N)c4)ccc3C)n2)ccn1 [Example 221]	500 to 1000 nM
≤ 100 nM	≤ 100 nM	500 to 1000 nM	COC(=O)Nc1cc(-c2cccc(-c3cc(NC(=O)c4ccnc(C(C)(C)C#N)c4)cnc3C)c2)ncn1 [Example 225]	≤ 100 nM
500 to 1000 nM	≤ 100 nM	100 to 500 nM	CNC(=O)c1cc(-c2cccc(-c3cc(NC(=O)c4ccnc(C(C)(C)C#N)c4)cnc3C)c2)cnn1 [Example 201]	100 to 500 nM
≤ 100 nM	≤ 100 nM	1000 to 10000 nM	Cc1ccc(NC(=O)c2ccnc(C(F)(F)F)c2)cc1-c1ccnc(-c2ccnc(N)c2)c1 [Example 16, N-(3-(2′-amino-[2,4′-bipyridin]-4-yl)-4-methylphenyl)-2-(trifluoromethyl)isonicotinamide]	1000 to 10000 nM
500 to 1000 nM	≤ 100 nM	100 to 500 nM	CNC(=O)c1cc(-c2ccnc(-c3cc(NC(=O)c4ccnc(C(C)(C)C#N)c4)cnc3C)n2)ccn1 [Example 199]	1000 to 10000 nM
≤ 100 nM	≤ 100 nM	≤ 100 nM	Cc1ccc(NC(=O)c2ccnc(C(C)(C)C#N)c2)cc1-c1cc(-c2ccnc(NC(=O)C3CC3)c2)cnn1 [Example 245]	≤ 100 nM
100 to 500 nM	≤ 100 nM	100 to 500 nM	CNC(=O)c1cc(-c2cc(-c3cc(NC(=O)c4ccnc(C(C)(C)F)c4)ccc3C)ccn2)ccn1 [Example 214]	≤ 100 nM
100 to 500 nM	≤ 100 nM	100 to 500 nM	CNC(=O)c1cc(-c2cccc(-c3cc(NC(=O)c4ccnc(C(C)(C)C#N)c4)cnc3C)c2)ccn1 [Example 192]	≤ 100 nM
100 to 500 nM	≤ 100 nM	≤ 100 nM	CNC(=O)c1cc(-c2cccc(-c3cc(NC(=O)c4ccnc(C(C)(C)C#N)c4)ccc3C)c2)cnn1 [Example 191]	≤ 100 nM
≤ 100 nM	≤ 100 nM	≤ 100 nM	Cc1ccc(NC(=O)c2ccnc(C(C)(C)C#N)c2)cc1-c1cccc(-c2ccnc(NC(=O)C3CC3)c2)c1 [Example 223]	≤ 100 nM
≤ 100 nM	≤ 100 nM	≤ 100 nM	Cc1ccc(NC(=O)c2ccnc(C(C)(C)C#N)c2)cc1-c1cncc(-c2cc(NC(=O)C3CC3)ncn2)c1 [Example 224]	≤ 100 nM
≤ 100 nM	≤ 100 nM	100 to 500 nM	Cc1ncc(NC(=O)c2ccnc(C(C)(C)C#N)c2)cc1-c1cccc(-c2ccnc(NC(=O)C3CC3)c2)c1 [Example 222]	≤ 100 nM
≤ 100 nM	≤ 100 nM	≤ 100 nM	CNC(=O)c1cc(-c2cc(-c3cc(NC(=O)c4ccnc(C5(C#N)CC5)c4)ccc3C)ccn2)ccn1 [Example 265]	≤ 100 nM
100 to 500 nM	≤ 100 nM	100 to 500 nM	CNC(=O)c1cc(-c2nc(-c3cc(NC(=O)c4ccnc(C(C)(C)C#N)c4)ccc3C)cc(C3CC3)n2)ccn1 [Example 196]	100 to 500 nM
≤ 100 nM	≤ 100 nM	≤ 100 nM	CNC(=O)c1cc(-c2cc(-c3cc(NC(=O)c4cccc(C(C)(C)C#N)c4)ccc3C)cc(OCCO)n2)ccn1 [Example 231]	≤ 100 nM
100 to 500 nM	≤ 100 nM	100 to 500 nM	CNC(=O)c1cc(-c2ccnc(-c3cc(NC(=O)c4ccnc(C(C)(C)C#N)c4)c(F)cc3C)n2)ccn1 [Example 242]	100 to 500 nM
≤ 100 nM	≤ 100 nM	500 to 1000 nM	Cc1ccc(NC(=O)c2ccnc(C(C)(C)C#N)c2)cc1-c1cccc(-c2cc(N)ncn2)c1 [Example 267]	100 to 500 nM
≤ 100 nM	≤ 100 nM	≤ 100 nM	Cc1ccc(NC(=O)c2ccnc(C(C)(C)C#N)c2)cc1-c1cnnc(-c2ccnc(NC(=O)C3CC3)c2)c1 [Example 230]	≤ 100 nM
